# Source: patent publication US20030170642A1, “Identification of cellular targets for biologically active molecules” (IRM, LLC, priority 2001, published 2003)
# Like-named read-outs stand apart in the source and are kept apart here.
# Experiments:
# [1] = test system: NF-κB; details: Jurkat reporter cells, stable retroviral over-expression, 1, 2 or 5 mM
# Procedure: Alternatively, Jurkat NF-κB reporter cells were seeded at 30,000 cells per/ml in 384-well microtiter plates. Recombinant retroviruses encoding wild-type IKK-beta or NF-κB p65 were generated and used to transduce Jurkat reporter cells. Untransduced cells were treated with 1, 2 or 5 mM salicylate for 30 minutes prior to stimulation with TNF-alpha (10 ng/ml). For transduced cells, 4 hours post retroviral incubation, cells were treated with either 0, 1, 2 or 5 mM salicylic acid.
# [2] = test system: NF-κB; assay: HEK293 NF-κB-luciferase reporter gene assay, TNF-alpha stimulation
# Procedure: Day 7: HEK293 and Jurkat NF-κB reporter cells were plated and treated with a dose-response of human TNF-alpha for 2 to 24 hours, lysed and treated with Bright-Glo luciferase reagent (Promega) and luminescence measured with the LJL Acquest luminometer.
# (§1) HEK293T NF-κB reporter cells were seeded at 7000 cells/well in 384-well plates in triplicate. Eighteen hours later, cells were treated with TNF-alpha (10 ng/mL) in the absence of or presence of 1, 2 or 5 mM sodium salicylate. Cells in other wells were transfected with mammalian expression vectors encoding wild-type human IKK-beta (50 ng) or NF-κB p65 (10 ng) by calcium phosphate. Eight hours post transfection, fresh medium was added with 1, 2 or 5 mM sodium salicylate and incubated for an additional 16 hours. At 24 hours post TNF addition or post transfection, cells were lysed and incubated with Bright-Glo (Promega) and Relative Light Units (RLUs) were determined using the LJL Acquest luminometer.
# Stimulus and detection addition: After 30 minute incubation with compounds, a solution of TNF-alpha (Sigma) diluted to 60 ng/ml and transferred to cells using the Cartesian synQUAD such that 1 μL of stimulus was added per well to a final dilution of approximately 10 ng/ml final. […] Cells were incubated with the Alamar Blue for three hours then read on the LJL Acquest in fluorescence mode at 100,000 us/well. […] Precisely five minutes after addition of Bright-Glo, the cell plate was read in luminescence mode in the LJL Acquest at 100,000 us per well. Wells treated with compounds in which fluorescent signals were >90% of the mean across the plate, and below 50% of the mean across the plate for luminescence were identified and compounds hit picked for future studies. […] IC50 values were also determined in the HEK293 NF-κB reporter gene assay in the same manner.
# (§2) HEK293 NF-κB reporter cells were plated in 96-well plates at 28,000 cells/well in D'MEM media containing 10% FBS, pen-strep antibiotics and 1 mM glutamine. […] After 24 hours, samples were treated with Bright-Glo and analyzed using the LJL Acquest luminometer.
# [3] = test system: NF-κB; assay: Jurkat NF-κB-luciferase reporter cell assay, TNF-alpha stimulation; type: cell-based; details: Jurkat reporter cells
# Procedure: Alternatively, Jurkat NF-κB reporter cells were seeded at 30,000 cells per/ml in 384-well microtiter plates. Recombinant retroviruses encoding wild-type IKK-beta or NF-κB p65 were generated and used to transduce Jurkat reporter cells. Untransduced cells were treated with 1, 2 or 5 mM salicylate for 30 minutes prior to stimulation with TNF-alpha (10 ng/ml).
# Cell Plating: Jurkat NF-κB reporter cells were seeded at 5 μL per well in Greiner 1536-well micro-plates using the Cartesian synQUAD. Settings for the 24,000 step motor were such that a 100 μL syringe would provide a volume per step of 4.2 nL; timing was controlled by a master dispenser solenoids and stepper motors which moved the stage and controlled the syringe pumps. The result was extremely rapid “on-the-fly” dispensing, similar to an inkjet printer. […]
# Compound addition: Four Falcon 384-well plates containing compounds (Aldrich) dissolved in dimethylsulfoxide (DMSO) to a final concentration of 1 mM (excepting the last two columns which were just DMSO) were transferred to the Jurkat reporter cells. […] Coefficients of variation (CVs) before and after compound addition was determined by transferring liquid from a FITC solution bath to 384 well plates and read on the LJL Acquest in fluorescence modality.
# [4] = test system: NF-κB; assay: In cellulo competition: over-expression of TNF/NF-κB pathway cDNAs in HEK293 NF-κB reporter cells; details: for Effect of over-expressed IKK-beta or NF-κB p65 on the compound's inhibition of the NF-κB reporter: transient over-expression, 1, 2 or 5 mM
# Procedure: as §1
# Screening and Small Complementation: HEK293 NF-κB reporter cells were plated at 7000 cells/well in 384-well Greiner clear bottom plates using a Titertek Multidrop. Cells were incubated for 8 hours before transfection of the cDNA libraries. […] Thirty minutes compound treatment, The Hydra was used again to mix two μL DNA with 8 ul of a premixed solution 61 μl 2m CaC12, 440 μH20 distributed into a 384-well intermediate plate. Then, 10 ul of a 2× Hepes Buffered Saline solution (HBS, pH 7.0) was mixed with the DNA and pipetted automatically for 5 seconds followed by 10 μL addition of the transfection solution to HEK293 NF-κB reporter cells. After transfected plates of cells were incubated at 37° C. for 16 hours, Bright-Glo was added to each well using a twelve-head multi-channel pipettor, incubated for five minutes then read on the LJL Acquest in luminescence mode. Controls used in this experiment were limited to p65, IKK-beta, NIK and IKK-alpha. Additionally, retroviral vectors encoding firefly luciferase alone were plated in 384-wells and transfected into wild-type HEK293 cells to determine transfection efficiency and CVs.
# as §2
compound,measurement,setting,value
"O=C(O)c1ccccc1O [Salicylate, salicylic acid]",Effect of over-expressed IKK-beta or NF-κB p65 on the compound's inhibition of the NF-κB reporter,[1],over-expression of cDNA encoding human IKK-beta diminished the inhibitory effects
same,Effect of over-expressed IKK-beta or NF-κB p65 on the compound's inhibition of the NF-κB reporter,[1]; listed as salicyclic acid,"over-expression of IKK-beta, but not NF-κB p65, could titrate out the effect"
same,Block of TNF induction of NF-κB reporter,"[2]; HEK293 reporter cells, TNF-alpha 10 ng/mL, 1, 2 or 5 mM sodium salicylate",block TNF induction of NF-κB
same,Block of TNF induction of NF-κB reporter,"[3]; TNF-alpha 10 ng/ml, 1, 2 or 5 mM salicylate",block TNF induction of NF-κB
same,Effect of over-expressed IKK-beta or NF-κB p65 on the compound's inhibition of the NF-κB reporter,[4],over-expression of cDNA encoding human IKK-beta diminished the inhibitory effects
same,Effect of over-expressed IKK-beta or NF-κB p65 on the compound's inhibition of the NF-κB reporter,[4]; listed as salicyclic acid,"over-expression of IKK-beta, but not NF-κB p65, could titrate out the effect"
TNF-alpha,Induction of NF-κB reporter luciferase,"[2]; HEK293 reporter cells, dose-response, 2 to 24 hours",inducible
same,Induction of NF-κB reporter luciferase,"[3]; dose-response, 2 to 24 hours",inducible
CC(=O)c1c(O)c(C)c(O)c(Cc2c(O)c3c(c(C(=O)/C=C/c4ccccc4)c2O)OC(C)(C)C=C3)c1O [Rottlerin],IC50,"[2]; Homo sapiens, HEK293, read-out: IC50 concentration, NF-κB reporter gene assay",0.05 µM
same,"Block of NF-κB reporter signals induced by TNF or over-expressed TNFR, TRAF2, NIK, IKK-beta, IKK-alpha, p65","[4]; compound at its IC50 concentration, 24 hours","able to block signals induced by TNF, TNFR, but not TRAF2"
